Laboratory results reported in ChEMBL document CHEMBL3124856, “Design, synthesis, and pharmacological evaluation of a novel series of pyridopyrazine-1,6-dione γ-secretase modulators” (J Med Chem, 2014).
In brackets after ≈: the same amount, converted by molar mass.

Assays:
Gamma-secretase [1] = experiment: Modulation of gamma-secretase (unknown origin) expressed in CHO cells overexpressing human wild type APP assessed as reduction of amyloid beta 42 level after 24 hrs by ELISA; assay type: cell-based
[2] = Bioavailability in rat at 1 mg/kg, iv and 5 mg/kg, po; assay type: ADME, organism-based; conditions: in vivo
Cytochrome P450 3A4 = Cytochrome P450 3A4 (Homo sapiens, UniProt P08684); experiment: Inhibition of CYP3A4 (unknown origin); assay type: ADME
Sequence of Cytochrome P450 3A4 (P08684 whole entry): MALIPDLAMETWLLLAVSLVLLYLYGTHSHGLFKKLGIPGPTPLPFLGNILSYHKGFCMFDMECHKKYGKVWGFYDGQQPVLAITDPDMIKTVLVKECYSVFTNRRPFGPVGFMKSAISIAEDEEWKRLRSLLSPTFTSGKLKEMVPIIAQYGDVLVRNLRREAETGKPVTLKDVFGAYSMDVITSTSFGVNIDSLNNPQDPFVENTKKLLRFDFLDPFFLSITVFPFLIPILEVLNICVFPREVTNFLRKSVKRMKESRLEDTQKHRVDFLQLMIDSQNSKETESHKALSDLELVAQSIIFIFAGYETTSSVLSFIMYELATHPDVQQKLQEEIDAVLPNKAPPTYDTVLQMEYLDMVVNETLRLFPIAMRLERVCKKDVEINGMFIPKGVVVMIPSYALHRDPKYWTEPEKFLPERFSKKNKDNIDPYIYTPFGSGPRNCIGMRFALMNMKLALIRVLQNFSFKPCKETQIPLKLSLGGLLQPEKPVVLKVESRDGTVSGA

[3] = Fraction unbound in Hartley guinea pig brain; assay type: ADME, tissue-based, Cavia porcellus
Cavia porcellus [4] = experiment: Antialzheimer activity in Hartley guinea pig assessed as reduction in brain amyloid beta 42 level at 10 mg/kg, po measured after 4 hrs post dosing relative to control; assay type: functional; design: scale not given: the % may be the effect or the level left
[5] = Drug uptake in Hartley guinea pig cerebrospinal fluid at 10 mg/kg, po after 4 hrs post dosing; assay type: ADME, organism-based, Cavia porcellus; design: dose 10 mg/kg, route oral; conditions: read-out: Drug uptake
Cytochrome P450 2C9 = Cytochrome P450 2C9 (Homo sapiens, UniProt P11712); experiment: Inhibition of CYP2C9 (unknown origin); assay type: ADME
Sequence of Cytochrome P450 2C9 (P11712 whole entry): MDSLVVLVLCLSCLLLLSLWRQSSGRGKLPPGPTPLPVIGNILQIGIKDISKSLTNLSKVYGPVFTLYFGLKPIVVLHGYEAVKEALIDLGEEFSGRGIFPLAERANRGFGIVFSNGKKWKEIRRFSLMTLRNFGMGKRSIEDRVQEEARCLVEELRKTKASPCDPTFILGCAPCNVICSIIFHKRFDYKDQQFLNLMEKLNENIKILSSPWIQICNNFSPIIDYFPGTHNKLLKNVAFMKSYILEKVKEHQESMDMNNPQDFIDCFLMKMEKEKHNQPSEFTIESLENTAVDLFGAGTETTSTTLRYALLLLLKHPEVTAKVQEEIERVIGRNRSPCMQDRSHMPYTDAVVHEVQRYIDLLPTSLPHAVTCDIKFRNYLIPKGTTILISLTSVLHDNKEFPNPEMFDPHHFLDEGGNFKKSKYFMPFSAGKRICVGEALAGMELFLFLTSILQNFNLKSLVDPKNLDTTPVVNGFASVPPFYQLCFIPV

Cytochrome P450 2C8 = molecular target: T1, Cytochrome P450 2C8 (Homo sapiens, UniProt P10632); experiment: Inhibition of CYP2C8 (unknown origin); assay type: ADME
T1 sequence (P10632 whole entry): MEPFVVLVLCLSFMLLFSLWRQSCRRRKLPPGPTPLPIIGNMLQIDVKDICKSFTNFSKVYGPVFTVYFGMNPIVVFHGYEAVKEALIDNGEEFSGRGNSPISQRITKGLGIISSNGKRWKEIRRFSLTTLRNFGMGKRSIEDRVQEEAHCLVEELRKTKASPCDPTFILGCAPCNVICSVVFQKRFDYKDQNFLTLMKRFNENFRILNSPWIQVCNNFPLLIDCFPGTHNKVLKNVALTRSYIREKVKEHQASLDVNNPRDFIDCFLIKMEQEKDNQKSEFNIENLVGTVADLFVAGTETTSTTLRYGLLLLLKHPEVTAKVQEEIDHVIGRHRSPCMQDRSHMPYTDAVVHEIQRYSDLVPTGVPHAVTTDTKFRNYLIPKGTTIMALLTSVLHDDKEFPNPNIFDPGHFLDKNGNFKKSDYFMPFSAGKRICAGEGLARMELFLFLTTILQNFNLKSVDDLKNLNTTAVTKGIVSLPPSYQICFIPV

Cytochrome P450 2D6 = Cytochrome P450 2D6 (Homo sapiens, UniProt P10635); experiment: Inhibition of CYP2D6 (unknown origin); assay type: ADME
Sequence of Cytochrome P450 2D6 (P10635 whole entry): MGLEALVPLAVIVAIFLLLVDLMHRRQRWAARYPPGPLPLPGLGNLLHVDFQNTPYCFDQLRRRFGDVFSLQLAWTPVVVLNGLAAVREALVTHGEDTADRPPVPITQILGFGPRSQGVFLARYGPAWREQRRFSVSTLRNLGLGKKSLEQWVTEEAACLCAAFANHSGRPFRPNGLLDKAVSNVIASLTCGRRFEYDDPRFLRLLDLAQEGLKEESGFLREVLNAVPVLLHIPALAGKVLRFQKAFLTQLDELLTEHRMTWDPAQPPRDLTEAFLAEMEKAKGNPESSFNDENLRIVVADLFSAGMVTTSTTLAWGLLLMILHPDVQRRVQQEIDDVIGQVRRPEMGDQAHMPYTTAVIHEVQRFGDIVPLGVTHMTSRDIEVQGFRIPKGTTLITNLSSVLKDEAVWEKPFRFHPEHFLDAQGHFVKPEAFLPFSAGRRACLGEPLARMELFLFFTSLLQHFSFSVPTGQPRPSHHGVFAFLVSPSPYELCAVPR

Cavia porcellus [6] = experiment: Antialzheimer activity in Hartley guinea pig assessed as reduction in brain amyloid beta 42 level at 90 mg/kg, po measured after 4 hrs post dosing relative to control; assay type: functional; design: scale not given: the % may be the effect or the level left
Cytochrome P450 2C19 = Cytochrome P450 2C19 (Homo sapiens, UniProt P33261); experiment: Inhibition of CYP2C19 (unknown origin); assay type: ADME
Sequence of Cytochrome P450 2C19 (P33261 whole entry): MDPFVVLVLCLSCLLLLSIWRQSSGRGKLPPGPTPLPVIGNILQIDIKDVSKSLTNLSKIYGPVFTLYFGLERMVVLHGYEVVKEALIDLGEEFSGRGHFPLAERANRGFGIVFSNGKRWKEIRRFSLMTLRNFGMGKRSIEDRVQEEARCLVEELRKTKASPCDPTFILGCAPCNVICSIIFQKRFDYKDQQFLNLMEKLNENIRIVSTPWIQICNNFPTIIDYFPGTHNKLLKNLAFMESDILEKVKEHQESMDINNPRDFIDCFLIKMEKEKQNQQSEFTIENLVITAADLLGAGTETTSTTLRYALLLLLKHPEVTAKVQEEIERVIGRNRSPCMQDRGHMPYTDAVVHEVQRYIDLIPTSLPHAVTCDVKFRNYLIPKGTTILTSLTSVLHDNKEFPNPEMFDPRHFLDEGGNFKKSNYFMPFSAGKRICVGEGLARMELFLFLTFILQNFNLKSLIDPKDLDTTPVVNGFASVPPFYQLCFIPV

Cavia porcellus [7] = experiment: Antialzheimer activity in po dosed Hartley guinea pig assessed as reduction in brain amyloid beta 40 level measured after 4 hrs post dosing; assay type: functional, organism-based
[8] = Fraction unbound in rat plasma; assay type: ADME, cell-free
Cavia porcellus [9] = experiment: Antialzheimer activity in Hartley guinea pig assessed as reduction in brain total amyloid beta level at 10 mg/kg, po measured after 4 hrs post dosing relative to control; assay type: functional; design: scale not given: the % may be the effect or the level left
[10] = Plasma concentration in rat at 5 mg/kg, po after 1 hr; assay type: ADME, organism-based; design: dose 5 mg/kg, route oral
[11] = Lipophilicity, log D of the compound by shake flask method; assay type: physicochemical; conditions: octanol/water
Cavia porcellus [12] = experiment: Antialzheimer activity in Hartley guinea pig assessed as reduction in brain amyloid beta 40 level at 90 mg/kg, po measured after 4 hrs post dosing relative to control; assay type: functional; design: scale not given: the % may be the effect or the level left
Cytochrome P450 1A2 = molecular target: T2, Cytochrome P450 1A2 (Homo sapiens, UniProt P05177); experiment: Inhibition of CYP1A2 (unknown origin); assay type: ADME
T2 sequence (P05177 whole entry): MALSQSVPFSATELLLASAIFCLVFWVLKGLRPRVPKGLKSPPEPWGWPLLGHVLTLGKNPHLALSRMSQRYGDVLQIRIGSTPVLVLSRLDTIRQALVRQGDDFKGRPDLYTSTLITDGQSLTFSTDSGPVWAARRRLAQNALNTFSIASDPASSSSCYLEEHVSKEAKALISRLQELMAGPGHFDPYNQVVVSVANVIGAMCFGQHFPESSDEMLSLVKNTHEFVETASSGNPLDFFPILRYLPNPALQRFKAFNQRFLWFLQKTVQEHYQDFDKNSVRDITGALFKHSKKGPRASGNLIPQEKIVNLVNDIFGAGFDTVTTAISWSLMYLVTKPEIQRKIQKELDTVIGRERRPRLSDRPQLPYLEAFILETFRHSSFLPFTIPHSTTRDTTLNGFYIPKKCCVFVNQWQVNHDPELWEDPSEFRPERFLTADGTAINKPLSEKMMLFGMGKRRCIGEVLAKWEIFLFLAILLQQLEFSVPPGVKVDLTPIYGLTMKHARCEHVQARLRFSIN

Cavia porcellus [13] = experiment: Antialzheimer activity in Hartley guinea pig assessed as increase in brain amyloid beta 38 level at 90 mg/kg, po measured after 4 hrs post dosing relative to control; assay type: functional
[14] = Drug uptake in Hartley guinea pig cerebrospinal fluid at 90 mg/kg, po after 4 hrs post dosing; assay type: ADME, organism-based, Cavia porcellus; design: dose 90 mg/kg, route oral; conditions: read-out: Drug uptake
Cavia porcellus [15] = experiment: Antialzheimer activity in po dosed Hartley guinea pig assessed as reduction in brain amyloid beta 42 level measured after 4 hrs post dosing; assay type: functional, organism-based
Cavia porcellus [16] = experiment: Antialzheimer activity in Hartley guinea pig assessed as reduction in brain amyloid beta 42 level at 30 mg/kg, po measured after 4 hrs post dosing relative to control; assay type: functional; design: scale not given: the % may be the effect or the level left
Cavia porcellus [17] = experiment: Antialzheimer activity in Hartley guinea pig assessed as reduction in brain amyloid beta 40 level at 10 mg/kg, po measured after 4 hrs post dosing relative to control; assay type: functional; design: scale not given: the % may be the effect or the level left
[18] = Fraction unbound in Hartley guinea pig plasma; assay type: ADME, cell-free, Cavia porcellus
[19] = Drug uptake in Hartley guinea pig brain at 90 mg/kg, po after 4 hrs post dosing; assay type: ADME, organism-based, Cavia porcellus; design: dose 90 mg/kg, route oral; conditions: read-out: Drug uptake
[20] = Drug uptake in Hartley guinea pig brain at 10 mg/kg, po after 4 hrs post dosing; assay type: ADME, organism-based, Cavia porcellus; design: dose 10 mg/kg, route oral; conditions: read-out: Drug uptake
[21] = Fraction unbound in rat brain; assay type: ADME, tissue-based
MDR1 (human) [22] = experiment: Efflux ratio of permeability in MDCK cells expressing human MDR1; assay type: ADME, cell-based, Canis lupus familiaris; conditions: dog
Cavia porcellus [23] = experiment: Antialzheimer activity in Hartley guinea pig assessed as increase in brain amyloid beta 38 level at 10 mg/kg, po measured after 4 hrs post dosing relative to control; assay type: functional
[24] = Aqueous kinetic solubility of the compound at pH 6.5; assay type: physicochemical; conditions: read-out: Kinetic_solubility
Cavia porcellus [25] = experiment: Antialzheimer activity in Hartley guinea pig assessed as reduction in brain amyloid beta 40 level at 30 mg/kg, po measured after 4 hrs post dosing relative to control; assay type: functional; design: scale not given: the % may be the effect or the level left
[26] = Drug uptake in rat brain at 5 mg/kg, po after 1 hr; assay type: ADME, organism-based; design: dose 5 mg/kg, route oral; conditions: read-out: Drug uptake
[27] = Passive apparent permeability from apical to basolateral side in RRCK cells; assay type: ADME, cell-based, Canis lupus familiaris, MDCKII-LE; conditions: dog, MDCK
[28] = Plasma concentration in Hartley guinea pig at 90 mg/kg, po after 4 hrs post dosing; assay type: ADME, organism-based, Cavia porcellus; design: dose 90 mg/kg, route oral
[29] = Ratio of drug uptake in brain to plasma in rat at 5 mg/kg, po after 1 hr; assay type: ADME, organism-based; design: dose 5 mg/kg, route oral; conditions: read-out: BPR
[30] = Plasma concentration in Hartley guinea pig at 10 mg/kg, po after 4 hrs post dosing; assay type: ADME, organism-based, Cavia porcellus; design: dose 10 mg/kg, route oral
[31] = Half life in rat at 1 mg/kg, iv; assay type: ADME, organism-based; design: dose 1 mg/kg, route intravenous; conditions: in vivo
Cavia porcellus [32] = experiment: Antialzheimer activity in Hartley guinea pig assessed as reduction in brain total amyloid beta level at 30 mg/kg, po measured after 4 hrs post dosing relative to control; assay type: functional; design: scale not given: the % may be the effect or the level left
[33] = Apparent intrinsic clearance in human liver microsomes; assay type: ADME; conditions: read-out: CLH(app)
[34] = Apparent intrinsic clearance in rat liver microsomes; assay type: ADME; conditions: read-out: CLH(app)
[35] = Ratio of unbound drug level in brain to plasma in rat; assay type: ADME
MDR1 (human) [36] = experiment: Permeability from apical to basolateral side in MDCK cells expressing human MDR; assay type: ADME, cell-based, Canis lupus familiaris; conditions: dog, read-out: permeability
[37] = Drug uptake in Hartley guinea pig cerebrospinal fluid at 30 mg/kg, po after 4 hrs post dosing; assay type: ADME, organism-based, Cavia porcellus; design: dose 30 mg/kg, route oral; conditions: read-out: Drug uptake
Cavia porcellus [38] = experiment: Antialzheimer activity in Hartley guinea pig assessed as increase in brain amyloid beta 38 level at 30 mg/kg, po measured after 4 hrs post dosing relative to control; assay type: functional
[39] = Volume of distribution at steady state in rat at 1 mg/kg, iv; assay type: ADME, organism-based; design: dose 1 mg/kg, route intravenous; conditions: in vivo, read-out: Vdss
[40] = Plasma concentration in Hartley guinea pig at 30 mg/kg, po after 4 hrs post dosing; assay type: ADME, organism-based, Cavia porcellus; design: dose 30 mg/kg, route oral
[41] = Drug uptake in Hartley guinea pig brain at 30 mg/kg, po after 4 hrs post dosing; assay type: ADME, organism-based, Cavia porcellus; design: dose 30 mg/kg, route oral; conditions: read-out: Drug uptake
[42] = Clearance in rat at 1 mg/kg, iv; assay type: ADME, organism-based; design: dose 1 mg/kg, route intravenous; conditions: in vivo
Cavia porcellus [43] = experiment: Antialzheimer activity in Hartley guinea pig assessed as reduction in brain total amyloid beta level at 90 mg/kg, po measured after 4 hrs post dosing relative to control; assay type: functional; design: scale not given: the % may be the effect or the level left
Gamma-secretase [44] = experiment: Modulation of gamma secretase in HEK293 NdeltaE cells assessed as inhibition of notch signalling; assay type: cell-based, Homo sapiens

Compound: Cc1cn(-c2ccc3n(c2=O)CCN(CCOc2ccc(Cl)cc2C(F)(F)F)C3=O)cn1
- IC50 (Gamma-secretase [1]): 0.101 µM
- bioavailability [2]: 88%
- IC50 (Cytochrome P450 3A4): > 30 µM
- fraction unbound [3]: 0.008
- Activity (Cavia porcellus [4]): 81%
- concentration at 4 h [5]: 0.0127 µM
- IC50 (Cytochrome P450 2C9): 15.4 µM
- IC50 (Cytochrome P450 2C8): 12.3 µM
- IC50 (Cytochrome P450 2D6): > 30 µM
- Activity (Cavia porcellus [6]): 32%
- IC50 (Cytochrome P450 2C19): > 30 µM
- Activity (Cavia porcellus [7]): Dose-dependent effect
- fraction unbound [8]: 0.0063
- Activity (Cavia porcellus [9]): 100%
- concentration at 1 h [10]: 4.14 µg/mL
- logD [11]: 3.32
- Activity (Cavia porcellus [12]): 37%
- IC50 (Cytochrome P450 1A2): > 30 µM
- Activity (Cavia porcellus [13]): 131%
- concentration at 4 h [14]: 0.239 µM
- Activity (Cavia porcellus [15]): Dose-dependent effect
- Activity (Cavia porcellus [16]): 56%
- Activity (Cavia porcellus [17]): 88%
- fraction unbound [18]: 0.07
- concentration at 4 h [19]: 52.4 µM
- concentration at 4 h [20]: 2.91 µM
- fraction unbound [21]: 0.0084
- efflux ratio (MDR1 (human) [22]): 1.8
- Activity (Cavia porcellus [23]): 102%
- solubility kinetic [24]: 95.6 µM (≈ 44.6 µg/mL)
- Activity (Cavia porcellus [25]): 69%
- concentration at 1 h [26]: 1 µg/mL
- Papp A→B [27]: 105 nm/s
- concentration at 4 h [28]: 7.3 µM
- Kp at 1 h [29]: 0.24
- concentration at 4 h [30]: 0.367 µM
- half-life [31]: 6.88 h
- Activity (Cavia porcellus [32]): 92%
- CLint scaled [33]: < 0.48 L/h/kg
- CLint scaled [34]: 2.86 L/h/kg
- Kp uu [35]: 0.32
- Papp A→B (MDR1 (human) [36]): 58 nm/s
- concentration at 4 h [37]: 0.0357 µM
- Activity (Cavia porcellus [38]): 108%
- Vd [39]: 0.69 L/kg
- concentration at 4 h [40]: 0.819 µM
- concentration at 4 h [41]: 9.16 µM
- clearance [42]: 0.0846 L/h/kg
- Activity (Cavia porcellus [43]): 82%
- IC50 (Gamma-secretase [44]): > 50 µM
